Measurements: patent US20090082456A1, “SOLUBLE EPOXIDE HYDROLASE INHIBITORS” (Arete Therapeutics, Inc., priority 2007, published 2009)

Tests used:
[1] = system: soluble epoxide hydrolase (sEH); experiment: Fluorescent assay for mouse and human soluble epoxide hydrolase (CMNPC substrate); format: biochemical
Text: Recombinant mouse sEH (MsEH) and human sEH (HsEH) were produced in a baculovirus expression system as previously reported. Grant et al., J. Biol. Chem., 268:17628-17633 (1993); Beetham et al., Arch. Biochem. Biophys., 305:197-201 (1993). The expressed proteins were purified from cell lysate by affinity chromatography. Wixtrom et al., Anal. Biochem., 169:71-80 (1988). Protein concentration was quantified using the Pierce BCA assay using bovine serum albumin as the calibrating standard. The preparations were at least 97% pure as judged by SDS-PAGE and scanning densitometry. They contained no detectable esterase or glutathione transferase activity which can interfere with the assay. The assay was also evaluated with similar results in crude cell lysates or homogenate of tissues. The IC50s for each inhibitor were according to the following procedure: Cyano(2-methoxynaphthalen-6-yl)methyl (3-phenyloxiran-2-yl)methyl carbonate (CMNPC; Jones P. D. et. al.; Analytical Biochemistry 2005; 343: pp. 66-75) Bis/Tris HCl 25 mM pH 7.0 containing 0.1 mg/mL of BSA (buffer A) Mother solution of enzyme in buffer A (Mouse sEH at 6 μg/mL and Human sEH at 5 μg/mL). Inhibitor dissolved in DMSO at the appropriate concentration. In a black 96 well plate, fill all the wells with 150 μL of buffer A. Add 2 μL of DMSO in well A2 and A3, and then add 2 μL of inhibitor solution in A1 and A4 through A12. Add 150 μL of buffer A in row A, then mix several time and transfer 150 μL to row B. Repeat this operation up to row H. The 150 μL removed from row H go to the trash. Add 20 μL of buffer A in column 1 and 2, then add 20 μL of enzyme solution to column 3 to 12. Incubate the plate for 5 minutes in the plate reader at 30° C. During incubation prepare the working solution of substrate by mixing 3.68 mL of buffer A (4×0.920 mL) with 266 μL (2×133 μL) of substrate solution). At t=0, add 30 μL of working substrate solution with multi-channel pipette labeled “Briggs 303” and start the reading ([S]final: 5 μM). Read with ex: 330 nm (20 nm) and em: 465 nm (20 nm) every 30 second for 10 minutes. The velocities are used to analyze and calculate the IC50s.

| melting point | % Inh ([1]; Conc 200 nM) | % Inh ([1]; Conc 1000 nM) | % Inh ([1]; Conc 2000 nM) | Structure (SMILES) |
| --- | --- | --- | --- | --- |
| 237 to 239 °C | 99% | – | – | CS(=O)(=O)NC1CCC(NC(=O)Nc2ccc(C(F)(F)F)cc2)CC1 (stereo not shown) [Compound 6, N-(4-(3-(4-(trifluoromethyl)phenyl)ureido)cyclohexyl)methanesulfonamide] |
| 310 to 312 °C | 98% | – | – | O=C(NC1CCC(NS(=O)(=O)c2cccc(C(F)(F)F)c2)CC1)NC12CC3CC(CC(C3)C1)C2 (stereo not shown) [Compound 1, N-(4-(3-(adamantan-1-yl)ureido)cyclohexyl)-3-(trifluoromethyl)benzenesulfonamide] |
| 296 to 299 °C | 98% | – | – | O=C(Nc1ccc(F)cc1)NC1CCC(NS(=O)(=O)c2cccc(C(F)(F)F)c2)CC1 (stereo not shown) [Compound 3, N-(4-(3-(4-fluorophenyl)ureido)cyclohexyl)-3-(trifluoromethyl)benzenesulfonamide] |
| – | 93% | – | – | CC(=O)NC1CCC(NC(=O)Nc2ccc(C(F)(F)F)cc2)CC1 (stereo not shown) [Compound 4, N-(4-(3-(4-(trifluoromethyl)phenyl)ureido)cyclohexyl)acetamide] |

Continued, compound first:

| Structure (SMILES) | melting point | % Inh ([1]; Conc 200 nM) | % Inh ([1]; Conc 1000 nM) | % Inh ([1]; Conc 2000 nM) |
| --- | --- | --- | --- | --- |
| CC(=O)NC1CCC(NC(=O)NC23CC4CC(CC(C4)C2)C3)CC1 (stereo not shown) [Compound 2, N-(4-(3-(adamantan-1-yl)ureido)cyclohexyl)acetamide] | > 300 °C | – | 98% | – |
| CS(=O)(=O)NC1CCC(NC(=O)c2ccc(F)cc2)CC1 (stereo not shown) [Compound 7, 4-fluoro-N-(4-(methylsulfonamido)cyclohexyl)benzamide] | 269 to 270 °C | – | – | 44% |
| CS(=O)(=O)NC1CCC(NC(=O)NC23CC4CC(CC(C4)C2)C3)CC1 (stereo not shown) [Compound 5, N-(4-(3-(adamantan-1-yl)ureido)cyclohexyl)methanesulfonamide] | > 300 °C | 96% | – | – |
